Reference: ChEMBL document CHEMBL6114955, “Probing into the plasma stability and microsomal stability of thiol-based prodrug derivatives: Using IYS-15, an HDAC inhibitor as the model thiol” (Bioorg Med Chem, 2025)

Key:
[1] = Ratio of half life in human liver microsomes in presence of BNPP to t1/2 in human liver microsomes absence of BNPP; format: ADME, Microsome
[2] = Stability in human plasma assessed as half life at pH 7.4 measured upto 5 hrs by LC-MS/MS analysis; format: ADME, cell-free
[3] = Metabolic stability in human liver microsomes assessed as half life in presence of NADPH measured upto 60 mins in presence of 5 mM BNPP carboxylesterase inhibitor by LC-MS/MS analysis; format: ADME, Microsome; settings: with BNPP (carboxylesterase inhibitor)
[4] = Ratio of half life in human liver microsomes in presence of ABT to t1/2 in human liver microsomes absence of ABT; format: ADME, Microsome
[5] = Metabolic stability in human liver microsomes assessed as half life in presence of NADPH measured upto 60 mins by LC-MS/MS analysis; format: ADME, Microsome
[6] = Metabolic stability in human liver microsomes assessed as half life in presence of NADPH measured upto 60 mins in presence of 2.5 mM ABT cytochrome P450 inhibitor by LC-MS/MS analysis; format: ADME, Microsome; settings: with ABT (cytochrome P450 inhibitor)
[7] = Metabolic stability in human liver microsomes assessed as half life in presence of NADPH measured upto 60 mins in presence of 8 uM quinidine by LC-MS/MS analysis; format: ADME, Microsome; settings: with quinidine
[8] = Metabolic stability in human liver microsomes assessed as half life in presence of NADPH measured upto 60 mins in presence of 50 uM furafylline by LC-MS/MS analysis; format: ADME, Microsome; settings: with furafylline
[9] = Metabolic stability in human liver microsomes assessed as half life in presence of NADPH measured upto 60 mins in presence of 2 uM ticlopidine by LC-MS/MS analysis; format: ADME, Microsome; settings: with ticlopidine
[10] = Metabolic stability in human liver microsomes assessed as intrinsic clearance measured per mg of protein in presence of NADPH measured upto 60 mins in presence of 2 uM ketoconazole by LC-MS/MS analysis; format: ADME, Microsome; settings: 1 h
[11] = Metabolic stability in human liver microsomes assessed as intrinsic clearance measured per mg of protein in presence of NADPH measured upto 60 mins in presence of 10 uM sulfaphenazole by LC-MS/MS analysis; format: ADME, Microsome; settings: 1 h
[12] = Metabolic stability in human liver microsomes assessed as intrinsic clearance measured per mg of protein in presence of NADPH measured upto 60 mins in presence of 10 uM montelukast by LC-MS/MS analysis; format: ADME, Microsome; settings: 1 h
[13] = Metabolic stability in human liver microsomes assessed as half life in presence of NADPH measured upto 60 mins in presence of 10 uM montelukast by LC-MS/MS analysis; format: ADME, Microsome; settings: with montelukast
[14] = Metabolic stability in human liver microsomes assessed as intrinsic clearance measured per mg of protein in presence of NADPH measured upto 60 mins in presence of 50 uM furafylline by LC-MS/MS analysis; format: ADME, Microsome; settings: 1 h
[15] = Metabolic stability in human liver microsomes assessed as half life in presence of NADPH measured upto 60 mins in presence of 2 uM ketoconazole by LC-MS/MS analysis; format: ADME, Microsome; settings: with ketoconazole
[16] = Metabolic stability in human liver microsomes assessed as intrinsic clearance measured per mg of protein in presence of NADPH measured upto 60 mins in presence of 2 uM ticlopidine by LC-MS/MS analysis; format: ADME, Microsome; settings: 1 h
[17] = Metabolic stability in human liver microsomes assessed as half life in presence of NADPH measured upto 60 mins in presence of 10 uM sulfaphenazole by LC-MS/MS analysis; format: ADME, Microsome; settings: with sulfaphenazole
[18] = Metabolic stability in human liver microsomes assessed as intrinsic clearance measured per mg of protein in presence of NADPH measured upto 60 mins in presence of 8 uM quinidine by LC-MS/MS analysis; format: ADME, Microsome; settings: 1 h

## CCCCSSCCCCCCC(=O)Nc1nc(-c2ccc(F)cc2)cs1
[1]
  Ratio: 1.66
[2]
  half-life: > 300 min
[3]
  half-life: 10.1 min
[4]
  Ratio: 2.78
[5]
  half-life: 6.08 min
[6]
  half-life: 16.9 min

## O=C(CCCCCCSC(=O)Cc1ccccc1)Nc1nc(-c2ccc(F)cc2)cs1
[2]
  half-life: > 160 min
[5]
  half-life: 2.14 min

## CCCCCNC(=O)SCCCCCCC(=O)Nc1nc(-c2ccc(F)cc2)cs1
[2]
  half-life: > 300 min
[5]
  half-life: 5.5 min

## O=C(CCCCCCSC(=O)c1ccccc1)Nc1nc(-c2ccc(F)cc2)cs1
[1]
  Ratio: 4.63
[2]
  half-life: > 300 min
[3]
  half-life: 36.3 min
[4]
  Ratio: 0.74
[5]
  half-life: 2.34 min
[6]
  half-life: 5.78 min

## CC(=O)NCSCCCCCCC(=O)Nc1nc(-c2ccc(F)cc2)cs1
[7]
  half-life: 8.68 min
[8]
  half-life: 8.31 min
[9]
  half-life: 8.09 min
[1]
  Ratio: 9.53
[2]
  half-life: > 300 min
[10]
  CLint: 93 µL/min/mg
[3]
  half-life: 81.4 min
[11]
  CLint: 218 µL/min/mg
[4]
  Ratio: 7.71
[12]
  CLint: 150 µL/min/mg
[13]
  half-life: 14 min
[14]
  CLint: 253 µL/min/mg
[15]
  half-life: 22.5 min
[5]
  half-life: 6.81 min
[16]
  CLint: 260 µL/min/mg
[17]
  half-life: 9.66 min
[6]
  half-life: 65.8 min
[18]
  CLint: 243 µL/min/mg

## CC(C)(C)SSCCCCCCC(=O)Nc1nc(-c2ccc(F)cc2)cs1
[1]
  Ratio: 1.26
[2]
  half-life: > 300 min
[3]
  half-life: 15.8 min
[4]
  Ratio: 2.13
[5]
  half-life: 12.5 min
[6]
  half-life: 26.7 min

## O=C(CCCCCCSP(=O)(c1ccccc1)c1ccccc1)Nc1nc(-c2ccc(F)cc2)cs1
[1]
  Ratio: 26.7
[2]
  half-life: > 300 min
[3]
  half-life: 24.5 min
[4]
  Ratio: 37.24
[5]
  half-life: 0.92 min
[6]
  half-life: 34.2 min

## COC(=O)SCCCCCCC(=O)Nc1nc(-c2ccc(F)cc2)cs1
[1]
  Ratio: 35.87
[2]
  half-life: > 300 min
[3]
  half-life: 28.2 min
[4]
  Ratio: 1.09
[5]
  half-life: 0.79 min
[6]
  half-life: 0.85 min

## CC(=O)SCCCCCCC(=O)Nc1nc(-c2ccc(F)cc2)cs1
[1]
  Ratio: 10.1
[2]
  half-life: 151 min
[3]
  half-life: 5.78 min
[4]
  Ratio: 0.93
[5]
  half-life: 0.57 min
[6]
  half-life: 0.53 min

## COP(=O)(OC)SCCCCCCC(=O)Nc1nc(-c2ccc(F)cc2)cs1
[1]
  Ratio: 16.8
[2]
  half-life: > 300 min
[3]
  half-life: 165 min
[4]
  Ratio: 4.46
[5]
  half-life: 9.85 min
[6]
  half-life: 44 min

## CCCCC(=O)SCCCCCCC(=O)Nc1nc(-c2ccc(F)cc2)cs1
[2]
  half-life: 179 min

## CCOP(=O)(OCC)SCCCCCCC(=O)Nc1nc(-c2ccc(F)cc2)cs1
[1]
  Ratio: 18.22
[2]
  half-life: > 300 min
[3]
  half-life: 54.5 min
[4]
  Ratio: 8.2
[5]
  half-life: 2.14 min
[6]
  half-life: 24.5 min

## O=C(CCCCCCSSCCCCCCC(=O)Nc1nc(-c2ccc(F)cc2)cs1)Nc1nc(-c2ccc(F)cc2)cs1
[2]
  half-life: 247 min

## CC(C)(C)C(=O)SCCCCCCC(=O)Nc1nc(-c2ccc(F)cc2)cs1
[2]
  half-life: > 300 min
[5]
  half-life: 4.11 min

## CCC(=O)SCCCCCCC(=O)Nc1nc(-c2ccc(F)cc2)cs1
[1]
  Ratio: 7.77
[2]
  half-life: 160 min
[3]
  half-life: 9.11 min
[4]
  Ratio: 0.48
[5]
  half-life: 1.17 min
[6]
  half-life: 0.56 min

## CN(C)C(=O)SCCCCCCC(=O)Nc1nc(-c2ccc(F)cc2)cs1
[7]
  half-life: 3.11 min
[8]
  half-life: 2.98 min
[9]
  half-life: 2.85 min
[1]
  Ratio: 5.32
[2]
  half-life: > 300 min
[10]
  CLint: 351 µL/min/mg
[3]
  half-life: 22.8 min
[11]
  CLint: 716 µL/min/mg
[4]
  Ratio: 26.54
[12]
  CLint: 365 µL/min/mg
[13]
  half-life: 5.76 min
[14]
  CLint: 708 µL/min/mg
[15]
  half-life: 5.99 min
[5]
  half-life: 3.09 min
[16]
  CLint: 737 µL/min/mg
[17]
  half-life: 2.94 min
[6]
  half-life: 114 min
[18]
  CLint: 675 µL/min/mg

## CNC(=O)SCCCCCCC(=O)Nc1nc(-c2ccc(F)cc2)cs1
[7]
  half-life: 7.28 min
[8]
  half-life: 7.1 min
[9]
  half-life: 7.42 min
[1]
  Ratio: 8.53
[2]
  half-life: > 300 min
[10]
  CLint: 115 µL/min/mg
[3]
  half-life: 54.9 min
[11]
  CLint: 276 µL/min/mg
[4]
  Ratio: 10.62
[12]
  CLint: 203 µL/min/mg
[13]
  half-life: 10.4 min
[14]
  CLint: 296 µL/min/mg
[15]
  half-life: 18.2 min
[5]
  half-life: 4.81 min
[16]
  CLint: 283 µL/min/mg
[17]
  half-life: 7.61 min
[6]
  half-life: 68.3 min
[18]
  CLint: 288 µL/min/mg

## CC(C)N(C(=O)SCCCCCCC(=O)Nc1nc(-c2ccc(F)cc2)cs1)C(C)C
[7]
  half-life: 1.15 min
[8]
  half-life: 1.52 min
[9]
  half-life: 1.39 min
[1]
  Ratio: 2.03
[2]
  half-life: > 300 min
[10]
  CLint: 67 µL/min/mg
[3]
  half-life: 17.1 min
[11]
  CLint: 1370 µL/min/mg
[4]
  Ratio: 9.6
[12]
  CLint: 1680 µL/min/mg
[13]
  half-life: 1.25 min
[14]
  CLint: 1380 µL/min/mg
[15]
  half-life: 31.5 min
[5]
  half-life: 1.27 min
[16]
  CLint: 1520 µL/min/mg
[17]
  half-life: 1.53 min
[6]
  half-life: 81.1 min
[18]
  CLint: 1840 µL/min/mg

## O=C(CCCCCCSC(=O)N1CCCC1)Nc1nc(-c2ccc(F)cc2)cs1
[2]
  half-life: > 300 min
[5]
  half-life: 11.4 min

## O=C(CCCCCCSC(=O)c1ccc(C(F)(F)F)cc1)Nc1nc(-c2ccc(F)cc2)cs1
[1]
  Ratio: 2.52
[2]
  half-life: > 300 min
[3]
  half-life: 14.5 min
[4]
  Ratio: 0.66
[5]
  half-life: 5.77 min
[6]
  half-life: 3.82 min

## COc1ccc(C(=O)SCCCCCCC(=O)Nc2nc(-c3ccc(F)cc3)cs2)cc1
[2]
  half-life: > 300 min
[5]
  half-life: 10.8 min

## O=C(CCCCCCSSC1CCCCC1)Nc1nc(-c2ccc(F)cc2)cs1
[2]
  half-life: > 300 min
[5]
  half-life: 18.9 min

## CC(C)(C)C(=O)NCSCCCCCCC(=O)Nc1nc(-c2ccc(F)cc2)cs1
[7]
  half-life: 1.43 min
[8]
  half-life: 1.41 min
[9]
  half-life: 1.38 min
[1]
  Ratio: 13.27
[2]
  half-life: > 300 min
[10]
  CLint: 74 µL/min/mg
[3]
  half-life: 27.6 min
[11]
  CLint: 1490 µL/min/mg
[4]
  Ratio: 101.23
[12]
  CLint: 1140 µL/min/mg
[13]
  half-life: 1.84 min
[14]
  CLint: 1490 µL/min/mg
[15]
  half-life: 28.5 min
[5]
  half-life: 1.75 min
[16]
  CLint: 1520 µL/min/mg
[17]
  half-life: 1.41 min
[6]
  half-life: 211 min
[18]
  CLint: 1470 µL/min/mg

## O=C(CCCCCCSC(=O)c1ccc2c(c1)OCCO2)Nc1nc(-c2ccc(F)cc2)cs1
[2]
  half-life: > 300 min
[5]
  half-life: 11.4 min

## CCCCCCSSCCCCCCC(=O)Nc1nc(-c2ccc(F)cc2)cs1
[2]
  half-life: > 300 min
[5]
  half-life: 11.9 min
